# Results from patent US20140148454A1, “SUBSTITUTED AMINO-ACRYLCARBOXAMIDES AS KCNQ2/3 MODULATORS” (GRÜNENTHAL GMBH, priority 2012, published 2014).
# What was measured:
# [1] = tested on: withdrawal reflex of the rat tail (tail flick) to radiant heat beam; test: Low-intensity tail flick test (rat); assay type: in vivo; conditions: dose 10 mg/kg (dose in brackets), MPE = percentage of maximum possible effect
# Method: Method II. Low-Intensity Tail Flick Test (Rat)
# In the low-intensity tail flick test, the determination of the antinociceptive effect of the compounds according to the invention towards an acute noxious thermal stimulus is carried out by measuring the withdrawal reflex of the rat tail (tail flick) in response to a radiant heat beam (analgesia meter; model 2011 of the company Rhema Labortechnik, Hofheim, Germany) according to the method described by D'Amour and Smith (J. Pharm. Exp. Ther. 72, 74 79 (1941). To this end, the rats were placed in a plexiglas restrainer, and a low-intensity radiant heat beam (48° C.) was focused onto the dorsal surface of the tail root. The stimulus intensity was adjusted to result in a mean pre-drug control withdrawal latency of about 7 s, thus also allowing a supraspinal modulation of the spinally mediated acute nociceptive reflex. […] Before administration of a compound according to the invention, the animals were pre-tested twice in the course of five minutes and the mean of these measurements was calculated as the pre-test mean. The antinociceptive effect was determined at 20, 40 and 60 min after peroral compound administration. The antinociceptive effect was calculated based on the increase in the tail withdrawal latency according to the following formula and is expressed as percentage of the maximum possible effect (MPE [%]): […]
# KCNQ2/3 channels = target: T1, KCNQ2/3 channels (Homo sapiens, UniProt O43525+O43526); test: Fluorescence assay using a voltage sensitive dye (fluorimetry); assay type: cell-based; conditions: CHO-K1 cells expressing KCNQ2/3 channels; for Emax: relative to retigabine = 100%, read-out: Fluorimetry % efficacy (retigabine = 100%); for EC50: voltage-sensitive dye, read-out: Fluorimetry EC50/IC50
# T1 construct: expressed in transfected cells; host or cells: CHO-K1 cells kept under selection antibiotics
# Method: Method I. Fluorescence Assay Using a Voltage Sensitive Dye (Fluorimetry) […] CHO-K1 cells expressing KCNQ2/3 channels are cultivated adherently at 37° C., 5% CO2 and 95% humidity in cell culture bottles (e.g. 80 cm^2 TC flasks, Nunc) with DMEM-high glucose (Sigma Aldrich, D7777) including 10% FCS (PAN Biotech, e.g. 3302-P270521) or alternatively MEM Alpha Medium (1×, liquid, Invitrogen, #22571), 10% fetal calf serum (FCS) (Invitrogen, #10270-106, heat-inactivated) and the necessary selection antibiotics.
# Before being sown out for the measurements, the cells are washed with 1×DPBS buffer Ca^2+/Mg^2+-free (e.g. Invitrogen, #14190-094) and detached from the bottom of the culture vessel by using Accutase (PAA Laboratories, #L11-007) (incubation with Accutase for 15 min at 37° C.). The cell number is determined using a CASY™ cell counter (TCC, Scharfe System). Depending on the optimal density for each individual cell line, 20,000-30,000 cells/well/100 μl are seeded onto 96-well Corning™ CeIIBIND™ assay plates (Flat Clear Bottom Black Polystyrene Microplates, #3340). Freshly seeded cells are then left to settle for one hour at room temperature, followed by incubation for 24 hours at 37° C., 5% CO2 and 95% humidity.
# The voltage-sensitive fluorescent dye from the Membrane Potential Assay Kit (Red™ Bulk format part R8123 for FLIPR, MDS Analytical Technologies™) is prepared by dissolving the contents of one vessel Membrane Potential Assay Kit Red Component A in 200 ml of extracellular buffer (ES buffer, 120 mM NaCl, 1 mM KCl, 10 mM HEPES, 2 mM CaCl2, 2 mM MgCl2, 10 mM glucose; pH 7.4). After removal of the nutrient medium, the cells are washed once with 200 μl of ES buffer, then loaded for 45 min at room temperature in 100 μl of dye solution in the dark.
# Fluorescence measurements are carried out in a BMG Labtech FLUOstar™, BMG Labtech NOVOstar™ or BMG Labtech POLARstar™ instrument (525 nm excitation, 560 nm emission, Bottom Read mode). After incubation with the dye, 50 μl of the test substances in the desired concentrations, or 50 μl of ES buffer for control purposes, are applied to the wells of the assay plate and incubated for 30 min at room temperature while being shielded from light. The fluorescence intensity of the dye is then measured for 5 min and the fluorescence value F1 of each well is thus determined at a given, constant time. 15 μl of a KCl solution are then added to each well (final concentration of potassium ions 92 mM). The change in fluorescence intensity is subsequently monitored until all the relevant values have been obtained (mainly 5-30 min). At a given time post KCl application, a fluorescence value F2 is determined, in this case at the time of the fluorescence peak.
# For calculation, the fluorescence intensity F2 is corrected for the fluorescence intensity F1, and the activity (ΔF/F) of the target compound on the potassium channel is determined as follows:
# In order to determine whether a substance has agonistic activity, is determined by adding to the well only the buffer solution instead of the test substance, determining the value F1K of the fluorescence intensity, adding the potassium ions as described above, and measuring a value F2K of the fluorescence intensity. F2K and F1K are then calculated as follows: […]
# A substance has an agonistic activity on the potassium channel if it is possible to conclude that a target compound has agonistic activity if Calculations of EC50 and IC50 values are carried out with the aid of ‘Prism v4.0’ software (GraphPad Software™).
Emax (KCNQ2/3 channels),EC50 (KCNQ2/3 channels),Compound,"Low intensity tail flick, rat, peroral, MPE (dose) [1]"
187%,0.263 µM,"CCCc1cc(N2CCOCC2)nc(C)c1C(=O)NCc1ccc(Cl)cc1 [Example 4, N-[(4-Chlorophenyl)-methyl]-2-methyl-6-morpholin-4-yl-4-propyl-pyridine-3-carboxylic acid amide]",42 (10) %
131%,1.27 µM,"CC(NC(=O)c1sc(N(C)C2CCOCC2)nc1C(F)(F)F)c1cccc(OC(F)(F)F)c1 (stereo not drawn) [Example 35, 2-(Methyl-tetrahydro-pyran-4-yl-amino)-4-(trifluoromethyl)-N-[1-[3-(trifluoromethyloxy)-phenyl]-ethyl]-thiazole-5-carboxylic acid amide]",
88%,0.217 µM,"CCC(C)c1nc(N2CCOCC2)cnc1C(=O)NCc1ccc(Cl)cc1 (stereo not drawn) [Example 20, N-[(4-Chlorophenyl)-methyl]-3-(1-methyl-propyl)-5-morpholin-4-yl-pyrazine-2-carboxylic acid amide]",
241%,0.319 µM,"CCSc1cc(N2CCOCC2)nc(C)c1C(=O)NCCCC(C)(C)C [Example 13, N-(4,4-Dimethyl-pentyl)-4-ethylsulfanyl-2-methyl-6-morpholin-4-yl-pyridine-3-carboxylic acid amide]",
178%,1.42 µM,"Cc1nc(N2CCOCC2)cc(C2CC2)c1C(=O)NCc1ccc(Cl)cc1 [Example 16, N-[(4-Chlorophenyl)-methyl]-4-cyclopropyl-2-methyl-6-morpholin-4-yl-pyridine-3-carboxylic acid amide]",
171%,0.564 µM,"CCSc1cc(N2CCOCC2)nc(C)c1C(=O)NCc1ccc(Cl)cc1 [Example 3, N-[(4-Chlorophenyl)-methyl]-4-ethylsulfanyl-2-methyl-6-morpholin-4-yl-pyridine-3-carboxylic acid amide]",
78%,1.28 µM,"CC(NC(=O)c1sc(N2CCOCC2)nc1C(F)(F)F)c1cccc(OC(F)(F)F)c1 (stereo not drawn) [Example 40, 2-Morpholin-4-yl-4-(trifluoromethyl)-N-[1-[3-(trifluoromethyloxy)-phenyl]ethyl]-thiazole-5-carboxylic acid amide]",
218%,1.35 µM,"CCOc1cc(N2CCOCC2)nc(C)c1C(=O)NCCCC(C)(C)C [Example 5, N-(4,4-Dimethyl-pentyl)-4-ethoxy-2-methyl-6-morpholin-4-yl-pyridine-3-carboxylic acid amide]",
165%,0.14 µM,"CCSc1nc(N2CCOCC2)nc(C)c1C(=O)NCc1cccc(F)c1 [Example 10, 4-Ethylsulfanyl-N-[(3-fluorophenyl)-methyl]-6-methyl-2-morpholin-4-yl-pyrimidine-5-carboxylic acid amide]",
137%,0.136 µM,"CCSc1nc(N2CCOCC2)nc(C)c1C(=O)NCc1ccc(Cl)cc1 [Example 1, N-[(4-Chlorophenyl)-methyl]-4-ethylsulfanyl-6-methyl-2-morpholin-4-yl-pyrimidine-5-carboxylic acid amide]",
